Reference: PubChem BioAssay AID256 (DTP/NCI, 2004)
Toxic doses and inconclusive results are not listed.

Test system: CD2F1 mice, L1210 leukemia ip, survival T/C
Assay: NCI In Vivo Anticancer Drug Screen. Data for tumor model L1210 Leukemia (intraperitoneal) in CD2F1 (CDF1) mice
Details: higher = longer survival
Method in brief: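 Tumor-bearing mice (transplanted tumor) were split into treated and vehicle control groups, and the measured endpoint of each treated group was divided by that of its vehicle controls.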

[1] = endpoint: mean survival time, dose: 25.0 mg/kg/injection, schedule: Q04DX002 (ip), vehicle: saline with Tween-80
[2] = endpoint: mean survival time, dose: 50.0 mg/kg/injection, schedule: Q04DX002 (ip), vehicle: saline with Tween-80
[3] = endpoint: mean survival time, dose: 100.0 mg/kg/injection, schedule: Q04DX002 (ip), vehicle: saline with Tween-80
[4] = endpoint: mean survival time, dose: 100.0 mg/kg/injection, schedule: Q04DX003 (ip), vehicle: saline with Tween-80
[5] = endpoint: mean survival time, dose: 200.0 mg/kg/injection, schedule: Q04DX003 (ip), vehicle: saline with Tween-80
[6] = endpoint: mean survival time, dose: 400.0 mg/kg/injection, schedule: Q04DX003 (ip), vehicle: saline with Tween-80
[7] = endpoint: mean survival time, dose: 100.0 mg/kg/injection, schedule: Q04DX003 (ip), vehicle: saline
[8] = endpoint: mean survival time, dose: 200.0 mg/kg/injection, schedule: Q04DX003 (ip), vehicle: saline
[9] = endpoint: mean survival time, dose: 400.0 mg/kg/injection, schedule: Q04DX003 (ip), vehicle: saline

Q: With `CN1C2C=CC(=O)C1C1C(=O)N(c3ccccc3)C(=O)C12` (configuration not stated) as the molecule, how does the T/C (endpoint: median survival time, dose: 12.5 mg/kg/injection, schedule: Q01DX005 (ip), vehicle: Klucel (hydroxypropylcellulose) (HPC)) read?
A: The T/C was 93 % of control.

Q: What about the T/C (endpoint: median survival time, dose: 25.0 mg/kg/injection, schedule: Q01DX005 (ip), vehicle: Klucel (hydroxypropylcellulose) (HPC)) of the same molecule?
A: Its T/C is 98 % of control.

Q: What about the T/C (endpoint: median survival time, dose: 50.0 mg/kg/injection, schedule: Q01DX005 (ip), vehicle: Klucel (hydroxypropylcellulose) (HPC)) of the same molecule?
A: Its T/C is 93 % of control.

Q: And the T/C (endpoint: median survival time, dose: 100.0 mg/kg/injection, schedule: Q01DX005 (ip), vehicle: Klucel (hydroxypropylcellulose) (HPC))?
A: The T/C was 94 % of control.

Q: What about the T/C (endpoint: median survival time, dose: 200.0 mg/kg/injection, schedule: Q01DX005 (ip), vehicle: Klucel (hydroxypropylcellulose) (HPC)) of the same molecule?
A: The T/C was 95 % of control.

Q: Which results are given for `O=C1C2C3CCC(O3)C2C(=O)N1CO` (configuration not stated)?
A: T/C [1]: 110 % of control; T/C [2]: 98 % of control; T/C [3]: 91 % of control

Q: Which results are given for `NC(=S)c1cn(C2OC(CO)C(O)C2O)c2ncnc(N)c12` (configuration not stated)?
A: T/C (endpoint: median survival time, dose: 2.5 mg/kg/injection, schedule: Q01DX009 (ip), vehicle: suspension in saline): 158 % of control; T/C (endpoint: median survival time, dose: 5.0 mg/kg/injection, schedule: Q01DX009 (ip), vehicle: suspension in saline): 175 % of control; T/C (endpoint: median survival time, dose: 10.0 mg/kg/injection, schedule: Q01DX009 (ip), vehicle: suspension in saline): 91 % of control

Q: `O=C(COc1ccc(Cl)c(Cl)c1)NCc1cccc(Cl)c1` was tested. Which T/C [4] did it give?
A: The T/C was 95 % of control.

Q: What about the T/C [5] of the same molecule?
A: Its T/C is 93 % of control.

Q: What about the T/C [6] of the same molecule?
A: Its T/C is 95 % of control.

Q: With `Cc1cc(NC(=O)CCc2ccc(N3C(N)=NC(N)=NC3(C)C)cc2)ccc1S(=O)(=O)F` as the molecule, how does the T/C (endpoint: mean survival time, dose: 0.8 mg/kg/injection, schedule: Q01DX015 (ip), vehicle: water) read?
A: The T/C was 112 % of control.

Q: What about the T/C (endpoint: mean survival time, dose: 4.0 mg/kg/injection, schedule: Q01DX015 (ip), vehicle: water) of the same molecule?
A: The T/C was 98 % of control.

Q: And the T/C (endpoint: mean survival time, dose: 20.0 mg/kg/injection, schedule: Q01DX015 (ip), vehicle: water)?
A: The T/C was 101 % of control.

Q: And the T/C (endpoint: mean survival time, dose: 100.0 mg/kg/injection, schedule: Q01DX015 (ip), vehicle: water)?
A: Its T/C is 110 % of control.

Q: What about the T/C (endpoint: mean survival time, dose: 500.0 mg/kg/injection, schedule: Q01DX015 (ip), vehicle: water) of the same molecule?
A: Its T/C is 113 % of control.

Q: Which T/C (endpoint: mean survival time, dose: 75.0 mg/kg/injection, schedule: Q01DX001 (ip), vehicle: saline) does the source give for `CCC(COC(=O)c1ccc([N+](=O)[O-])cc1)NC1CCCCC1` (configuration not stated) here?
A: Its T/C is 102 % of control.

Q: And the T/C (endpoint: mean survival time, dose: 150.0 mg/kg/injection, schedule: Q01DX001 (ip), vehicle: saline)?
A: The T/C was 103 % of control.

Q: And the T/C (endpoint: mean survival time, dose: 300.0 mg/kg/injection, schedule: Q01DX001 (ip), vehicle: saline)?
A: The T/C was 101 % of control.

Q: What does the source list for `CCSC1=NCCCS1`?
A: T/C (endpoint: mean survival time, dose: 75.0 mg/kg/injection, schedule: Q01DX001 (ip), vehicle: other): 97 % of control; T/C (endpoint: mean survival time, dose: 150.0 mg/kg/injection, schedule: Q01DX001 (ip), vehicle: other): 98 % of control; T/C (endpoint: mean survival time, dose: 300.0 mg/kg/injection, schedule: Q01DX001 (ip), vehicle: other): 95 % of control

Q: Which results are given for `Cc1cc(NC(=O)c2ccc(Cl)cc2)ccc1Cl`?
A: T/C [4]: 97 % of control; T/C [5]: 97 % of control; T/C [6]: 106 % of control

Q: Which results are given for `CCC1C(=O)OCc2c1cc1n(c2=O)C(CC)c2c-1nc1ccccc1c2Cl` (configuration not stated)?
A: T/C [7]: 98 % of control; T/C [8]: 95 % of control; T/C [9]: 90 % of control

Q: Which T/C (endpoint: mean survival time, dose: 100.0 mg/kg/injection, schedule: Q01DX001 (ip), vehicle: saline with Tween-80) does the source give for `Cc1c2c(cc3c1CCC1(C)C3CCC1C(C)/C=C/C(C)C(C)C)CC(O)CC2` (configuration not stated) here?
A: The T/C was 92 % of control.

Q: And the T/C (endpoint: mean survival time, dose: 200.0 mg/kg/injection, schedule: Q01DX001 (ip), vehicle: saline with Tween-80)?
A: The T/C was 95 % of control.

Q: And the T/C (endpoint: mean survival time, dose: 400.0 mg/kg/injection, schedule: Q01DX001 (ip), vehicle: saline with Tween-80)?
A: Its T/C is 92 % of control.

Q: What does the source list for `[CH3][Sn]([CH3])([Br])[CH2]CC[CH2][Sn]([CH3])([CH3])[Br]`?
A: T/C (endpoint: mean survival time, dose: 0.02 mg/kg/injection, schedule: Q01DX009 (ip), vehicle: saline): 100 % of control; T/C (endpoint: mean survival time, dose: 0.04 mg/kg/injection, schedule: Q01DX009 (ip), vehicle: saline): 104 % of control; T/C (endpoint: mean survival time, dose: 0.08 mg/kg/injection, schedule: Q01DX009 (ip), vehicle: saline): 102 % of control; T/C (endpoint: mean survival time, dose: 6.25 mg/kg/injection, schedule: Q01DX009 (ip), vehicle: saline): 110 % of control

Q: `CCCOC(=O)c1ccc(N2N=C(C)CCC2=O)cc1` was tested. Which T/C [1] did it give?
A: The T/C was 97 % of control.

Q: What about the T/C [2] of the same molecule?
A: Its T/C is 102 % of control.

Q: What about the T/C [3] of the same molecule?
A: The T/C was 97 % of control.

Q: Which T/C (endpoint: mean survival time, dose: 75.0 mg/kg/injection, schedule: Q01DX001 (ip), vehicle: saline with Tween-80) does the source give for `CCCc1nc(N)[nH]c(=O)c1CCCCCCCCCCCc1ccccc1` here?
A: Its T/C is 98 % of control.

Q: And the T/C (endpoint: mean survival time, dose: 150.0 mg/kg/injection, schedule: Q01DX001 (ip), vehicle: saline with Tween-80)?
A: The T/C was 97 % of control.

Q: And the T/C (endpoint: mean survival time, dose: 300.0 mg/kg/injection, schedule: Q01DX001 (ip), vehicle: saline with Tween-80)?
A: Its T/C is 95 % of control.

Q: For `Nc1ccc(/C=C/c2ccnc3ccccc23)cc1`, which T/C (endpoint: mean survival time, dose: 4.0 mg/kg/injection, schedule: Q01DX Z (ip), vehicle: saline) is on record?
A: The T/C was 104 % of control.

Q: And the T/C (endpoint: mean survival time, dose: 8.0 mg/kg/injection, schedule: Q01DX Z (ip), vehicle: saline)?
A: Its T/C is 101 % of control.

Q: What about the T/C (endpoint: mean survival time, dose: 16.0 mg/kg/injection, schedule: Q01DX Z (ip), vehicle: saline) of the same molecule?
A: Its T/C is 98 % of control.

Q: With `O=C(c1ccccc1)C1(Br)CCCCC1` as the molecule, how does the T/C (endpoint: mean survival time, dose: 50.0 mg/kg/injection, schedule: Q04DX003 (ip), vehicle: saline) read?
A: The T/C was 95 % of control.

Q: What about the T/C (endpoint: mean survival time, dose: 100.0 mg/kg/injection, schedule: Q04DX003 (ip), vehicle: Klucel (hydroxypropylcellulose) (HPC)) of the same molecule?
A: Its T/C is 101 % of control.

Q: And the T/C [7]?
A: Its T/C is 96 % of control.

Q: And the T/C (endpoint: mean survival time, dose: 200.0 mg/kg/injection, schedule: Q04DX003 (ip), vehicle: Klucel (hydroxypropylcellulose) (HPC))?
A: Its T/C is 96 % of control.

Q: What about the T/C [8] of the same molecule?
A: The T/C was 93 % of control.

Q: And the T/C (endpoint: mean survival time, dose: 400.0 mg/kg/injection, schedule: Q04DX003 (ip), vehicle: Klucel (hydroxypropylcellulose) (HPC))?
A: Its T/C is 106 % of control.

Q: And the T/C [9]?
A: Its T/C is 98 % of control.

Q: `COC(=O)c1cc([N+](=O)[O-])c(Sc2ncnc3nc[nH]c23)c([N+](=O)[O-])c1` was tested. Which T/C (endpoint: mean survival time, dose: 11.0 mg/kg/injection, schedule: Q01DX005 (ip), vehicle: other) did it give?
A: Its T/C is 103 % of control.

Q: What about the T/C (endpoint: mean survival time, dose: 12.5 mg/kg/injection, schedule: Q01DX005 (ip), vehicle: other) of the same molecule?
A: The T/C was 110 % of control.

Q: What about the T/C (endpoint: mean survival time, dose: 16.5 mg/kg/injection, schedule: Q01DX005 (ip), vehicle: other) of the same molecule?
A: The T/C was 124 % of control.

Q: And the T/C (endpoint: mean survival time, dose: 25.0 mg/kg/injection, schedule: Q01DX005 (ip), vehicle: other)?
A: The T/C was 95 % of control.

Q: What about the T/C (endpoint: mean survival time, dose: 50.0 mg/kg/injection, schedule: Q01DX005 (ip), vehicle: other) of the same molecule?
A: The T/C was 115 % of control.

Q: What does the source list for `O=C1CCCCC1C1(O)C(=O)Nc2ccccc21` (configuration not stated)?
A: T/C (endpoint: mean survival time, dose: 50.0 mg/kg/injection, schedule: Q01DX009 (ip), vehicle: saline with Tween-80): 91 % of control; T/C (endpoint: mean survival time, dose: 100.0 mg/kg/injection, schedule: Q01DX009 (ip), vehicle: saline with Tween-80): 95 % of control; T/C (endpoint: mean survival time, dose: 200.0 mg/kg/injection, schedule: Q01DX009 (ip), vehicle: saline with Tween-80): 87 % of control
